Reference: patent publication US20240270762A1, “PENICILLIN-BINDING PROTEIN INHIBITORS” (priority 2021, published 2024)
pEC50: −log10 of the molar value. Converted amounts (≈) assume the structure as drawn.

Tests used:
[1] = system: A. baumannii CDC-0036; experiment: microbe, parasite or virus in culture; type: cell-based; conditions: Acinetobacter baumannii, CDC0036, read-out: MIC, A. baumannii CDC-0036
[2] = system: P. aeruginosa ATCC 27853; experiment: microbe, parasite or virus in culture; type: cell-based; conditions: Pseudomonas aeruginosa, ATCC27853, read-out: Minimum inhibitory concentration, P. aeruginosa ATCC 27853
[3] = system: P. aeruginosa CDC-0090; experiment: microbe, parasite or virus in culture; type: cell-based; conditions: Pseudomonas aeruginosa, CDC0090, read-out: Minimum inhibitory concentration, P. aeruginosa CDC-0090
[4] = system: A. baumannii CDC-0083; experiment: microbe, parasite or virus in culture; type: cell-based; conditions: Acinetobacter baumannii, CDC0083, read-out: MIC, A. baumannii CDC-0083
[5] = system: P. aeruginosa CDC-0054; experiment: microbe, parasite or virus in culture; type: cell-based; conditions: Pseudomonas aeruginosa, CDC0054, read-out: Minimum inhibitory concentration, P. aeruginosa CDC-0054
[6] = molecular target: T1, PBP3 from Escherichia coli (K-12) (Escherichia coli, UniProt P0AD68); experiment: Bocillin-FL fluorescence polarization competition binding, E. coli PBP3
T1 construct: made in house
T1 sequence (P0AD68 1-577): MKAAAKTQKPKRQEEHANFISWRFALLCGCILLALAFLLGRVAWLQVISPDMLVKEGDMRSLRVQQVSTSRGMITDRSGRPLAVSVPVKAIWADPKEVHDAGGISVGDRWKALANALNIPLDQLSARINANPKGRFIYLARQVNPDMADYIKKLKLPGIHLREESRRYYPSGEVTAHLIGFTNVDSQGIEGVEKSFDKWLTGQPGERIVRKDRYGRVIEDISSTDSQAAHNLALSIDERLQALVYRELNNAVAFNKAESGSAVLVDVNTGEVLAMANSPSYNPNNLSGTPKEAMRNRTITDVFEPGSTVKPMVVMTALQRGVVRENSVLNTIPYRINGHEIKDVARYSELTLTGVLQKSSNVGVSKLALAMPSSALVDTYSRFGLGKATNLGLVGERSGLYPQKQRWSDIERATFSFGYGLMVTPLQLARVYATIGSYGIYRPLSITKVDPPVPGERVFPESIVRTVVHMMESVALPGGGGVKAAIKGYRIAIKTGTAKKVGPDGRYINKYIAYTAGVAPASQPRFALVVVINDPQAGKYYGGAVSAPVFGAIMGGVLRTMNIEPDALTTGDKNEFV
In short: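 Purified PBPs pre-incubated with inhibitor (E. coli PBP3 1.5 μM, 30 min; P. aeruginosa PBP3 0.75 μM, A. baumannii PBP1a 1 μM and PBP3 0.2 μM, 15 min), then Bocillin-FL 0.1 μM (0.05 μM for PBP1a) added; FP read up to 60 min. EC50 = concentration halving bound Bocillin-FL.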

[7] = system: A. baumannii 1258916; experiment: microbe, parasite or virus in culture; type: cell-based, Acinetobacter baumannii; conditions: Acinetobacter baumannii, 1258916, read-out: MIC, A. baumannii 1258916
[8] = system: B. thailandensis ATCC 700388; experiment: microbe, parasite or virus in culture; type: cell-based; conditions: Burkholderia thailandensis, ATCC700388, read-out: Minimum inhibitory concentration (MIC), B. thailandensis ATCC 700388
[9] = system: P. aeruginosa CDC-0110; experiment: microbe, parasite or virus in culture; type: cell-based; conditions: Pseudomonas aeruginosa, CDC0110, read-out: Minimum inhibitory concentration, P. aeruginosa CDC-0110
[10] = system: P. aeruginosa (ΔmexAB-oprM); experiment: Broth microdilution MIC in iron-depleted CAMHB (IDM); type: cell-based; conditions: Pseudomonas aeruginosa; iron-depleted CAMHB (IDM); […]; read-out: Minimum inhibitory concentration, P. aeruginosa ΔmexAB-oprM

O=C(NCCCN1CCN(C(=O)N[C@H](C(=O)N[C@H]2Cc3ccc(F)c(C(=O)O)c3OB2O)c2cc(F)c(O)c(O)c2Cl)C1=O)Nc1ccc(O)cc1 [Example 283, (R)-3-((S)-2-(2-chloro-5-fluoro-3,4-dihydroxyphenyl)-2-(3-(3-(3-(4-hydroxyphenyl)ureido)propyl)-2-oxoimidazolidine-1-carboxamido)acetamido)-7-fluoro-2-hydroxy-3,4-dihydro-2H-benzo[e][1,2]oxaborinine-8-carboxylic acid]
MIC [1]: > 128 mg/L
MIC [2]: > 128 mg/L
MIC [3]: > 128 mg/L
MIC [4]: > 128 mg/L
MIC [5]: > 128 mg/L
pEC50 [6]: < 3.60
MIC [7]: > 128 mg/L
MIC [8]: > 128 mg/L
MIC [9]: > 128 mg/L
MIC [10]: > 128 mg/L

O=C(NCCCN1CCN(C(=O)N[C@@H](C(=O)N[C@H]2Cc3ccc(F)c(C(=O)O)c3OB2O)c2cc(F)c(O)c(O)c2Cl)C1=O)Nc1ccc(O)cc1 [Example 284, (R)-3-((R)-2-(2-chloro-5-fluoro-3,4-dihydroxyphenyl)-2-(3-(3-(3-(4-hydroxyphenyl)ureido)propyl)-2-oxoimidazolidine-1-carboxamido)acetamido)-7-fluoro-2-hydroxy-3,4-dihydro-2H-benzo[e][1,2]oxaborinine-8-carboxylic acid]
MIC [1]: < 1 mg/L
MIC [2]: 2 to 4 mg/L (≈ 2.68 to 5.36 µM)
MIC [3]: < 1 mg/L
MIC [4]: 2 to 4 mg/L (≈ 2.68 to 5.36 µM)
MIC [5]: < 1 mg/L
pEC50 [6]: 4.30 to 5.00
MIC [7]: < 1 mg/L
MIC [8]: < 1 mg/L
MIC [9]: < 1 mg/L
MIC [10]: < 1 mg/L

O=C(NCCCN1CCN(C(=O)NC(C(=O)N[C@H]2Cc3ccc(F)c(C(=O)O)c3OB2O)c2cc(F)c(O)c(O)c2Cl)C1=O)Nc1ccncc1 (stereo partly drawn) [Example 285, (3R)-3-(2-(2-chloro-5-fluoro-3,4-dihydroxyphenyl)-2-(2-oxo-3-(3-(3-(pyridin-4-yl)ureido)propyl)imidazolidine-1-carboxamido)acetamido)-7-fluoro-2-hydroxy-3,4-dihydro-2H-benzo[e][1,2]oxaborinine-8-carboxylic acid]
MIC [1]: 8 to 16 mg/L (≈ 10.9 to 21.9 µM)
MIC [2]: 8 to 16 mg/L (≈ 10.9 to 21.9 µM)
MIC [3]: 2 to 4 mg/L (≈ 2.73 to 5.47 µM)
MIC [4]: < 1 mg/L
MIC [5]: 8 to 16 mg/L (≈ 10.9 to 21.9 µM)
pEC50 [6]: 4.30 to 5.00
MIC [7]: 2 to 4 mg/L (≈ 2.73 to 5.47 µM)
MIC [8]: 2 to 4 mg/L (≈ 2.73 to 5.47 µM)
MIC [9]: 8 to 16 mg/L (≈ 10.9 to 21.9 µM)
MIC [10]: < 1 mg/L

O=C(NCCS(=O)(=O)N1CCN(C(=O)N[C@H](C(=O)N[C@H]2Cc3ccc(F)c(C(=O)O)c3OB2O)c2cc(F)c(O)c(O)c2Cl)C1=O)c1ccc(O)cc1 [Example 286, (R)-3-((S)-2-(2-chloro-5-fluoro-3,4-dihydroxyphenyl)-2-(3-((2-(4-hydroxybenzamido)ethyl)sulfonyl)-2-oxoimidazolidine-1-carboxamido)acetamido)-7-fluoro-2-hydroxy-3,4-dihydro-2H-benzo[e][1,2]oxaborinine-8-carboxylic acid]
MIC [1]: > 128 mg/L
MIC [2]: > 128 mg/L
MIC [3]: > 128 mg/L
MIC [4]: > 128 mg/L
MIC [5]: > 128 mg/L
pEC50 [6]: < 3.60
MIC [7]: > 128 mg/L
MIC [8]: > 128 mg/L
MIC [9]: > 128 mg/L
MIC [10]: > 128 mg/L

O=C(NCCS(=O)(=O)N1CCN(C(=O)N[C@@H](C(=O)N[C@H]2Cc3ccc(F)c(C(=O)O)c3OB2O)c2cc(F)c(O)c(O)c2Cl)C1=O)c1ccc(O)cc1 [Example 287, (R)-3-((R)-2-(2-chloro-5-fluoro-3,4-dihydroxyphenyl)-2-(3-((2-(4-hydroxybenzamido)ethyl)sulfonyl)-2-oxoimidazolidine-1-carboxamido)acetamido)-7-fluoro-2-hydroxy-3,4-dihydro-2H-benzo[e][1,2]oxaborinine-8-carboxylic acid]
MIC [1]: 2 to 4 mg/L (≈ 2.56 to 5.12 µM)
MIC [2]: 2 to 4 mg/L (≈ 2.56 to 5.12 µM)
MIC [3]: 2 to 4 mg/L (≈ 2.56 to 5.12 µM)
MIC [4]: < 1 mg/L
MIC [5]: 2 to 4 mg/L (≈ 2.56 to 5.12 µM)
pEC50 [6]: > 5.00
MIC [7]: < 1 mg/L
MIC [8]: 2 to 4 mg/L (≈ 2.56 to 5.12 µM)
MIC [9]: < 1 mg/L
MIC [10]: < 1 mg/L

O=C(NCCS(=O)(=O)N1CCN(C(=O)NC(C(=O)N[C@H]2Cc3ccc(F)c(C(=O)O)c3OB2O)c2cc(F)c(O)c(O)c2Cl)C1=O)c1ccncc1 (stereo partly drawn) [Example 288, (3R)-3-(2-(2-chloro-5-fluoro-3,4-dihydroxyphenyl)-2-(3-((2-(isonicotinamido)ethyl)sulfonyl)-2-oxoimidazolidine-1-carboxamido)acetamido)-7-fluoro-2-hydroxy-3,4-dihydro-2H-benzo[e][1,2]oxaborinine-8-carboxylic acid]
MIC [1]: 2 to 4 mg/L (≈ 2.61 to 5.22 µM)
MIC [2]: 2 to 4 mg/L (≈ 2.61 to 5.22 µM)
MIC [3]: 2 to 4 mg/L (≈ 2.61 to 5.22 µM)
MIC [4]: < 1 mg/L
MIC [5]: 2 to 4 mg/L (≈ 2.61 to 5.22 µM)
pEC50 [6]: > 5.00
MIC [7]: < 1 mg/L
MIC [8]: 2 to 4 mg/L (≈ 2.61 to 5.22 µM)
MIC [9]: 2 to 4 mg/L (≈ 2.61 to 5.22 µM)
MIC [10]: < 1 mg/L

O=C(NCCS(=O)(=O)N1CCN(C(=O)NC(C(=O)N[C@H]2Cc3ccc(F)c(C(=O)O)c3OB2O)c2cc(F)c(O)c(O)c2Cl)C1=O)Nc1ccc(O)cc1 (stereo partly drawn) [Example 289, (3R)-3-(2-(2-chloro-5-fluoro-3,4-dihydroxyphenyl)-2-(3-((2-(3-(4-hydroxyphenyl)ureido)ethyl)sulfonyl)-2-oxoimidazolidine-1-carboxamido)acetamido)-7-fluoro-2-hydroxy-3,4-dihydro-2H-benzo[e][1,2]oxaborinine-8-carboxylic acid]
MIC [1]: 2 to 4 mg/L (≈ 2.51 to 5.02 µM)
MIC [2]: 2 to 4 mg/L (≈ 2.51 to 5.02 µM)
MIC [3]: 2 to 4 mg/L (≈ 2.51 to 5.02 µM)
MIC [4]: < 1 mg/L
MIC [5]: 2 to 4 mg/L (≈ 2.51 to 5.02 µM)
pEC50 [6]: > 5.00
MIC [7]: < 1 mg/L
MIC [8]: 8 to 16 mg/L (≈ 10 to 20.1 µM)
MIC [9]: 2 to 4 mg/L (≈ 2.51 to 5.02 µM)
MIC [10]: < 1 mg/L

O=C(NCCS(=O)(=O)N1CCN(C(=O)N[C@@H](C(=O)N[C@H]2Cc3ccc(F)c(C(=O)O)c3OB2O)c2cc(F)c(O)c(O)c2Cl)C1=O)Nc1ccncc1 [Example 290, (R)-3-((R)-2-(2-chloro-5-fluoro-3,4-dihydroxyphenyl)-2-(2-oxo-3-((2-(3-(pyridin-4-yl)ureido)ethyl)sulfonyl)imidazolidine-1-carboxamido)acetamido)-7-fluoro-2-hydroxy-3,4-dihydro-2H-benzo[e][1,2]oxaborinine-8-carboxylic acid]
MIC [1]: 2 to 4 mg/L (≈ 2.56 to 5.12 µM)
MIC [2]: 2 to 4 mg/L (≈ 2.56 to 5.12 µM)
MIC [3]: 2 to 4 mg/L (≈ 2.56 to 5.12 µM)
MIC [4]: < 1 mg/L
MIC [5]: 2 to 4 mg/L (≈ 2.56 to 5.12 µM)
pEC50 [6]: > 5.00
MIC [7]: < 1 mg/L
MIC [8]: 2 to 4 mg/L (≈ 2.56 to 5.12 µM)
MIC [9]: < 1 mg/L
MIC [10]: < 1 mg/L

O=C(NCCCS(=O)(=O)N1CCN(C(=O)NC(C(=O)N[C@H]2Cc3ccc(F)c(C(=O)O)c3OB2O)c2cc(F)c(O)c(O)c2Cl)C1=O)Nc1ccncc1 (stereo partly drawn) [Example 291, (3R)-3-(2-(2-chloro-5-fluoro-3,4-dihydroxyphenyl)-2-(2-oxo-3-((3-(3-(pyridin-4-yl)ureido)propyl)sulfonyl)imidazolidine-1-carboxamido)acetamido)-7-fluoro-2-hydroxy-3,4-dihydro-2H-benzo[e][1,2]oxaborinine-8-carboxylic acid]
MIC [1]: 2 to 4 mg/L (≈ 2.51 to 5.03 µM)
MIC [2]: 2 to 4 mg/L (≈ 2.51 to 5.03 µM)
MIC [3]: 2 to 4 mg/L (≈ 2.51 to 5.03 µM)
MIC [4]: < 1 mg/L
MIC [5]: 2 to 4 mg/L (≈ 2.51 to 5.03 µM)
pEC50 [6]: > 5.00
MIC [7]: < 1 mg/L
MIC [8]: 2 to 4 mg/L (≈ 2.51 to 5.03 µM)
MIC [9]: 2 to 4 mg/L (≈ 2.51 to 5.03 µM)
MIC [10]: < 1 mg/L

O=C(O)c1c(F)ccc2c1OB(O)[C@@H](NC(=O)C(NC(=O)N1CCN(Cc3ccc(O)c(O)c3Cl)C(=O)C1=O)c1cc(F)c(O)c(O)c1Cl)C2 (stereo partly drawn) [Example 292, (3R)-3-(2-(4-(2-chloro-3,4-dihydroxybenzyl)-2,3-dioxopiperazine-1-carboxamido)-2-(2-chloro-5-fluoro-3,4-dihydroxyphenyl)acetamido)-7-fluoro-2-hydroxy-3,4-dihydro-2H-benzo[e][1,2]oxaborinine-8-carboxylic acid]
MIC [1]: > 128 mg/L
MIC [2]: < 1 mg/L
MIC [3]: < 1 mg/L
MIC [4]: > 128 mg/L
MIC [5]: < 1 mg/L
pEC50 [6]: > 5.00
MIC [7]: > 128 mg/L
MIC [8]: > 128 mg/L
MIC [9]: > 128 mg/L
MIC [10]: < 1 mg/L

O=C(O)c1c(F)ccc2c1OB(O)[C@@H](NC(=O)C(NC(=O)N1CCN(C3CCN(C(=O)c4cccc(O)c4)CC3)C(=O)C1=O)c1cc(F)c(O)c(O)c1Cl)C2 (stereo partly drawn) [Example 293, (3R)-3-(2-(2-chloro-5-fluoro-3,4-dihydroxyphenyl)-2-(4-(1-(3-hydroxybenzoyl)piperidin-4-yl)-2,3-dioxopiperazine-1-carboxamido)acetamido)-7-fluoro-2-hydroxy-3,4-dihydro-2H-benzo[e][1,2]oxaborinine-8-carboxylic acid]
MIC [1]: < 1 mg/L
MIC [2]: 2 to 4 mg/L (≈ 2.54 to 5.09 µM)
MIC [3]: 2 to 4 mg/L (≈ 2.54 to 5.09 µM)
MIC [4]: < 1 mg/L
MIC [5]: < 1 mg/L
pEC50 [6]: > 5.00
MIC [7]: < 1 mg/L
MIC [8]: < 1 mg/L
MIC [9]: < 1 mg/L
MIC [10]: < 1 mg/L
